Data on 9 compounds can be found in patent US20090203720A1, “Methods for inhibiting cell growth” (priority 2003, published 2009).

One data set addresses CK1α (Homo sapiens, UniProt P48729). Kind of data set: In vitro kinase assay of RXR immunoprecipitated complexes with inhibitor in the assay mixture. Type of data set: biochemical. As to conditions: RXR immunoprecipitated complexes from Compound 1-treated HEK293 Flag-RXR cells; read-out: IC50 for inhibition of phosphorylation of RXR and p160.
The subject of a further data set is CK1 isoforms. As to conditions: literature (refs 25,26); read-out: reported IC50 for inhibition of CK1 isoforms; cited from earlier work.
The subject of the next data set is RXRα homodimers. Kind of data set: Transactivation assay, pRXRE-Luc (DR-1) reporter in CV-1 cells. The data set is classed as cell-based. As to conditions: 10^-8 M, 16 hr, CV1 cells. As to the method: (§1) FIGS. 4A, 4B and 4C display evidence of transactivation by RXRα homodimers or RXRα:RARα heterodimers is not modulated by CK1α. For the left panel, CV1 cells were cotransfected with pFlag-RXRα, reporter plasmid pRXRE-Luc, β-galactosidase expression vector, plus increasing amount of CK1α expression vector (lane 1 and 2: 0 ng; lane 3: 50 ng; lane 4: 100 ng; lane 5: 200 ng), or sense strand CK1α or double-strand RNAi CK1α, or sense strand CK1ε or double-strand RNAi CK1ε. […] Data are presented as the activity of luciferase normalized to that of β-galactosidase activity, which served as an internal control for transfection efficiency and are the mean of three independent experiments with triplicates for each. For the middle panel, CV1 cells were cotransfected with pFlag-RXRα, pRAR-V5, reporter plasmid pRARE-Luc, β-galactosidase expression vector, plus sense strand CK1α or double-strand RNAi CK1α. […] Data are presented as the activity of luciferase normalized to that of β-galactosidase activity and are the mean of three independent experiments with triplicates for each. CK1α could efficaciously be depleted in CV-1 cells by small double-strand RNAi, judged by immunoblotting the total cell lysates with anti-CK1α antibodies (left panel).
CK1α is the smallest in the CK1 family. […] The role of CK1α in transactivation by RXR homodimers and RXR:RAR heterodimers was determined. […]

In data set [1] the test system is DT40RXR cells. Kind of data set: Activation of caspases 3 and 9. Type of data set: cell-based. As to the method:
(§2) Caspase activities were measured following manufacturer's protocols and presented as fold increase in relative to control.
(§3) The sensitivity of the wild-type cells and the cells stably expressing RXR to RXR agonist treatment.

Another data set deals with Jurkat-pSupCK1α cells. Kind of data set: Apoptotic populations in CK1α-suppressed Jurkat cells. Type of data set: cell-based. As to conditions: 3 days. As to the method: FIGS. 4J, 4K, 4L and 4M show effects of depletion of CK1α on Jurkat cells: A cell line (Jurkat-pSupCK1α) in which CK1α expression is suppressed by stably expressing SiRNA CK1α was generated from Jurkat cells (left panel). The effect of COMPOUND-1 (4 days) on growth inhibition of Jurkat and Jurkat-pSupCK1α cells was measured (the second panel).
Based on this observation, CK1α negative regulation RXR-mediated apoptosis. HEK293RXR and Jurkat cells were used to deplete the expression of endogenous CK1α by stably transfecting CK1α RNAi expression vector. Although the depletion of endogenous CK1α in both cell lines was not very efficient, (with a 30% to 50% decrease for the expression of CK1α achieved in both cell lines) after decreasing the CK1α expression, both cell lines were becoming very sensitive to the treatment of RXR agonist in term of the cell growth inhibition (FIGS. 4J, 4K, 4L and 4M). Apoptotic cell populations of Jurkat-pSupCK1 (containing the CK1α RNAi construct) is increased compared to the parental cell lines in the presence of RXR agonist (FIGS. 4J, 4K, 4L and 4M).

For another data set, the system named is JurkatRXR cells. Kind of data set: Apoptosis by FACS DNA content analysis (propidium iodide). As to conditions: 10 nM, 3 days, 11.9% without agonist. The data set is classed as cell-based. As to the method:
(§4) Cells having a DNA content less than the G1 population were considered as apoptotic cells.
(§5) For immunoblotting, proteins from cell lysates or immunoprecipitates were subjected to separation on SDS-PAGE (38). The resolved polypeptides were transferred to PVDF membrane and analyzed by immunoblotting (39). The targeted proteins were detected using the enhanced chemiluminescence immunodetection system (Amersham). DNA content analysis by FACS was performed on FACScan™ (Becton Dickinson) as described (40).
(Flow cytometry measures light scatter and fluorescence of single cells or particles in a stream.)

In data set [2] the test system is DT40RXR cells. The description is as above. Type of data set: cell-based. As to conditions: 10 nM, 3 days, 10.4% without agonist. As to the method:
as §4, §5

Another data set concerns Jurkat cells. The description is as above. The data set is classed as cell-based. As to conditions: 10 nM, 3 days, 2.8% without agonist. As to the method:
as §4, §5

Data set [3] concerns DT40 cells. Described as above. Type of data set: cell-based. As to conditions: 10 nM, 3 days, cells with DNA content less than G1, 3.5% without agonist. As to the method:
as §4, §5

In another data set the target is T1, RXRα (Homo sapiens, UniProt P19793).
T1 construct: expressed in transfected cells; host or cells: HEK293
T1 sequence (P19793 1-462): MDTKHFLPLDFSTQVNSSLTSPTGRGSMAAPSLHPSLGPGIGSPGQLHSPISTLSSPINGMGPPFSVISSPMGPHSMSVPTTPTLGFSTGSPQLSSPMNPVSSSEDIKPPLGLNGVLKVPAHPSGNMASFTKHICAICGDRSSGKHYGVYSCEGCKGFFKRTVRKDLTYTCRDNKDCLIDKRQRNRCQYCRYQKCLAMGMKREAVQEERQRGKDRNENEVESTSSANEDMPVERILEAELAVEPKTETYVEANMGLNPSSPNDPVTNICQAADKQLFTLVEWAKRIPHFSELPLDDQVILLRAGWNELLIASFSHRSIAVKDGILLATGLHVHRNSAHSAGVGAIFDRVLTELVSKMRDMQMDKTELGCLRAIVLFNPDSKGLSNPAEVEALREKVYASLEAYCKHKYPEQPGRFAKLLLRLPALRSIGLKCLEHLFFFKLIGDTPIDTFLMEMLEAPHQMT
Kind of data set: Ligand-dependent recruitment of protein kinase to Flag-RXRα immunocomplexes (immunoprecipitation, in vitro kinase assay). Type of data set: cell-based. As to conditions: for recruitment of protein kinase to RXR immunocomplexes: transfected HEK293 cells, ligands at 10^-6 M, 15 minutes. An excerpt: Total cell lysates were immunoprecipitated with anti-Flag antibody (M2). An aliquot of the immunocomplexes were used for the in vitro kinase reaction with [γ-^32P]ATP and separated on SDS-PAGE. The phosphorylated proteins were detected by autoradiography (right panel). To show the presence of equal amounts of RXR in the immunoprecipitates, additional aliquots of the immunocomplexes were subjected to immunoblotting with a polyclonal antibody (D20) against RXR (left panel).
In vitro kinase reaction assay was performed.

Data set [4] concerns DT40RXR and JurkatRXR cells. Kind of data set: Cell death/growth inhibition in RXR-overexpressing versus parental cells. The data set is classed as cell-based. As to conditions: JurkatRXR vs parental cells, 3 days. As to the method:
FIGS. 1A, 1B and 1C show RXR and RXR agonist dependent cell growth inhibition: DT40, DT40RXR, Jurkat, and JurkatRXR cells (5×10^3 cells/ml) were treated with various doses of AGN19424 for 3 days (the left two panels). Viable cells were counted and were presented as percentage of control (cells without treatment).
Overexpressing activated RXR may mediate growth inhibitory effects in some human carcinoma cells (17). To confirm that the effects of RXR agonists were mediated by RXR proteins and explore the molecular mechanism, two RXR stably expression cell lines were generated using B lymphoma cell (DT40) and T lymphoma cells (Jurkat cells), which are named DT40RXR and JurkatRXR (FIG. 1A, left panel).
as §3

The test system of data set [5] is DT40 cells. Kind of data set: Activation of caspases 3 and 9. Type of data set: cell-based. As to the method:
as §2, §3

The next data set concerns RXR-associated kinase. Kind of data set: Effect of signalling pathway modulators on RXR-associated kinase activity in RXR transfected cells. Type of data set: cell-based. As to conditions: cell treatment: anisomycin 50 μM; pathway inhibitors 1 hour; insulin 30 minutes. As to the method:
(§6) The cells were stimulated with anisomycin (50 μM) and COMPOUND-1 (10^−7 M) as indicated, then the cell lysates were subjected to immunoprecipitation and in vitro kinase assay (bottom panel).
(§7) Activation of stress pathways lead to the phosphorylation of RXR (22,23), and MKK4/SEK1 is reported to associate with and phosphorylate RXR directly (23). […] Anisomycin treatment led to phosphorylation of RXR resulting in an up-shift of the RXR band on SDS-PAGE (22).
To further study the effect of signaling transduction pathways on the RXR-associated kinase activity, RXR transfected cells were incubated with inhibitors of the PI3 kinase (wortmannin), p42/44 MAPK (PD98059), or p38 MAPK pathways (SB202190 or SB203580) for 1 hour or stimulated with insulin or 10% serum for 30 minutes. RXR complexes were then isolated and the in vitro kinase assays were performed in the usual manner.

For another data set, the system named is RXR:RAR heterodimers. Kind of data set: Transactivation assay, pRARE-Luc reporter in CV-1 cells. Type of data set: cell-based. As to conditions: CV-1 cells cotransfected with RXRα and RARα; 10^-7 M, 16 hr. As to the method: as §1
Similar transfection experiments were also performed using pRARE-Luc as reporter with cotransfection of RXRα and RARα. […]

Another data set relates to MKK4. Kind of data set: MKK4 phosphorylation (stress pathway activation) by immunoblotting. Type of data set: cell-based. As to conditions: HEK293 transfected with RXR or RXR plus MKK4. As to the method:
as §6, §7, §5
(A western blot detects proteins with antibodies after separation by electrophoresis.)

pIC50: −log10 of the molar value.

Chain of CK1α (P48729 whole entry, one chain of several, canonical isoform): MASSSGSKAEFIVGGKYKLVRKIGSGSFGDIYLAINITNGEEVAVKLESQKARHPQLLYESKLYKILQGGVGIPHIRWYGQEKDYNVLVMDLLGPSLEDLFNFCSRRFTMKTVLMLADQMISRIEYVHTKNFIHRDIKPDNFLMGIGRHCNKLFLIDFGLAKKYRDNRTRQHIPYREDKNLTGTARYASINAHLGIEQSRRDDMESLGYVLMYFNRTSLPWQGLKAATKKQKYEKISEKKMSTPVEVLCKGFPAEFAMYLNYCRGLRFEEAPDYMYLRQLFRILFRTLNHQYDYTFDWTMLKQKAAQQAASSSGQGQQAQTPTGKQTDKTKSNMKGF

A word on the pIC50: it is −log10 of the IC50, conventionally taken in molar units. With `NCCNS(=O)(=O)c1ccc(Cl)c2ccncc12` [CK1-7, N-(2-amino-ethyl)-5-chloroisoquinoline-8-sulfonamide], the figures for the pIC50 on CK1α and with CK1 isoforms were around 4.52 and 4.00 to 5.00, respectively.

Regarding `CC(/C=C/C1CC1(C)c1ccc2c(c1)C(C)(C)CCC2(C)C)=C\C(=O)O` (stereo not shown) [Compound 1], the DR-1 luciferase expression entry in the data set on RXRα homodimers was “greatly stimulated”. In addition, in the data set with DT40RXR cells [1], the “activation of caspases 3 and 9” value is given as “activated”. In the data set with Jurkat-pSupCK1α cells, the apoptotic populations result is “dramatic increase of apoptotic populations”. The apoptotic cells was found to be 36.4% in the data set on JurkatRXR cells, 57.3% in the data set on DT40RXR cells [2], 3.4% with Jurkat cells and 4.5% in the data set on DT40 cells [3]. At RXRα (immunoprecipitation in absence of Compound 1, added later to kinase reaction mixture), the “kinase activity in Flag-RXR immunoprecipitated complex when ligand added only to the in vitro kinase reaction” value is listed as “could not be detected”. Also, the “recruitment of protein kinase to RXR immunocomplexes” value at RXRα was “contained the kinase that could phosphorylate RXR and the 160 kDa protein”. The “efficacy in cell death/growth inhibition on overexpression of RXR” value in data set [4] is “dramatically increase the efficacy”.

As to `OO` [Compound H2O2, hydrogen peroxide, reference compound], the “activation of caspases 3 and 9” value in the data set on DT40RXR cells [1] is “could activate caspases 3 and 9”; with DT40 cells [5], “could activate caspases 3 and 9”.

Consider `COc1cccc(-c2cc(=O)c3ccccc3o2)c1N` [PD98059], for which the “effect on kinase activities in the RXR immunocomplexes” value (from here on “effect on kinase activities”) in the data set with RXR-associated kinase is listed as “not influenced to a significant degree”.

Regarding `Oc1ccc(-c2nc(-c3ccncc3)c(-c3ccc(F)cc3)[nH]2)cc1` [SB202190], the “effect on kinase activities” value with RXR-associated kinase was “not influenced to a significant degree”.

Turning to `C[S+]([O-])c1ccc(-c2nc(-c3ccncc3)c(-c3ccc(F)cc3)[nH]2)cc1` (stereo not shown) [SB203580], the “effect on kinase activities” value with RXR-associated kinase was “not influenced to a significant degree”.

On to `C/C(=C\c1ccc(C(=O)O)cc1)c1ccc2c(c1)C(C)(C)CCC2(C)C` [TTNPB, reference compound], for which the “recruitment of protein kinase to RXR immunocomplexes” value on RXRα was “did not recruit the protein kinase”. The “activation of RXR:RAR heterodimers (pRARE-Luc)” value with RXR:RAR heterodimers is listed as “activated”.

For the compound `COc1ccc(C[C@H]2NC[C@H](O)[C@H]2OC(C)=O)cc1` [anisomycin], in the data set with MKK4, the “phosphorylation of MKK4” value is “increased phosphorylation of both endogenous and overexpressed MKK4”. Besides, the “effect on kinase activities” value with RXR-associated kinase is “not affected by anisomycin treatment”.

Consider “insulin: insulin used to stimulate RXR transfected cells for 30 minutes”, for which the “effect on kinase activities” value with RXR-associated kinase is reported as “not influenced to a significant degree”.
